Reference: ChEMBL document CHEMBL1201862, “PubChem BioAssay data set” (2004)
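Step 1: Grow cells in 96-well plates. Step 2: Expose to compound for 48 hours at 5 concentrations. Step 3: Interpolate endpoints linearly; if unreached, use highest concentration. Here, GI50 denotes the concentration required for 50% inhibition of growth.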 Active and inactive are the calls of the source. Rule as the data show it: active = GI50 up to about 1.1 µM and inactive = higher. Residues, ends and D or L forms follow the SMILES beside them.

Tests used:
Assay in all cases: DTP human tumour cell line panel, 48 h
TK-10 = system: TK-10
MOLT-4 = system: MOLT-4
HOP-92 = system: HOP-92
NCI-H23 = system: NCI-H23
SW-620 = system: SW-620
SF-295 = system: SF-295
UACC-62 = system: UACC-62
RPMI-8226 = system: RPMI-8226
HL-60 = system: HL-60
U-251 = system: U-251
OVCAR-8 = system: OVCAR-8
LOX IMVI = system: LOX IMVI
SR = system: SR
KM12 = system: KM12
SF-268 = system: SF-268
NCI/ADR-RES = system: NCI/ADR-RES
UO-31 = system: UO-31
SNB-75 = system: SNB-75
786-0 = system: 786-0
DU-145 = system: DU-145

Structure (SMILES)	GI50 (TK-10)	GI50 (MOLT-4)	GI50 (HOP-92)	GI50 (NCI-H23)	GI50 (SW-620)	GI50 (SF-295)	GI50 (UACC-62)	GI50 (RPMI-8226)	GI50 (HL-60)	GI50 (U-251)	GI50 (OVCAR-8)	GI50 (LOX IMVI)	GI50 (SR)	GI50 (KM12)	GI50 (SF-268)	GI50 (NCI/ADR-RES)	GI50 (UO-31)	GI50 (SNB-75)	GI50 (786-0)	GI50 (DU-145)
O=C1CNNC(CSc2nc3ccc(I)cc3c(=O)n2Cc2ccccc2)=N1	30.1 µM (inactive)	31.9 µM (inactive)	22.7 µM (inactive)	31.6 µM (inactive)	42.4 µM (inactive)	20.4 µM (inactive)	15.8 µM (inactive)	22.6 µM (inactive)	2.23 µM (inactive)	21.4 µM (inactive)	26.5 µM (inactive)	18.2 µM (inactive)	17.9 µM (inactive)	28.1 µM (inactive)	24.7 µM (inactive)	26.8 µM (inactive)	1.24 µM (inactive)	11.6 µM (inactive)	29.9 µM (inactive)	22.2 µM (inactive)
FC(F)(F)c1cccc(-c2nc3nc(Cl)c(Cl)nc3[nH]2)c1	4.95 µM (inactive)	2.18 µM (inactive)	0.889 µM (active)	1.47 µM (inactive)	3.72 µM (inactive)	2.05 µM (inactive)	0.562 µM (active)	0.426 µM (active)	1.69 µM (inactive)	1.85 µM (inactive)	3.06 µM (inactive)	2.92 µM (inactive)	2.62 µM (inactive)	2.69 µM (inactive)	3.03 µM (inactive)	2.53 µM (inactive)	2.24 µM (inactive)	2.42 µM (inactive)	3.77 µM (inactive)	3.29 µM (inactive)
Cc1ccc(S(=O)(=O)[N-]C2C(=O)c3ccccc3C(=O)C2[n+]2cccc(C(N)=O)c2)cc1 (stereo not given)	33.9 µM (inactive)	> 100 µM (inactive)	> 100 µM (inactive)	> 100 µM (inactive)	> 100 µM (inactive)	> 100 µM (inactive)	> 100 µM (inactive)	> 100 µM (inactive)	> 100 µM (inactive)	> 100 µM (inactive)	> 100 µM (inactive)	30.7 µM (inactive)	> 100 µM (inactive)	> 100 µM (inactive)	> 100 µM (inactive)	> 100 µM (inactive)	> 100 µM (inactive)	> 100 µM (inactive)	30.8 µM (inactive)	40.6 µM (inactive)
CCn1c(-c2cc(OC)cc(OC)c2)nc2c1C(=O)c1ccccc1C2=O	> 100 µM (inactive)	> 100 µM (inactive)	60 µM (inactive)	> 100 µM (inactive)	> 100 µM (inactive)	29.2 µM (inactive)	20.6 µM (inactive)	> 100 µM (inactive)	> 100 µM (inactive)	> 100 µM (inactive)	> 100 µM (inactive)	–	> 100 µM (inactive)	> 100 µM (inactive)	65.8 µM (inactive)	> 100 µM (inactive)	–	22.4 µM (inactive)	45.4 µM (inactive)	> 100 µM (inactive)
COC(=O)C(Cc1ccccc1)NP(=O)(O)OCC1OC(n2ccc(N)nc2=O)C(O)C1O (stereo not given)	40.8 µM (inactive)	76 µM (inactive)	> 100 µM (inactive)	> 100 µM (inactive)	> 100 µM (inactive)	> 100 µM (inactive)	> 100 µM (inactive)	> 100 µM (inactive)	> 100 µM (inactive)	> 100 µM (inactive)	> 100 µM (inactive)	> 100 µM (inactive)	66.1 µM (inactive)	> 100 µM (inactive)	> 100 µM (inactive)	> 100 µM (inactive)	> 100 µM (inactive)	> 100 µM (inactive)	> 100 µM (inactive)	> 100 µM (inactive)
O=[N+]([O-])c1ccc(C2=NOC(c3ccc(Cl)cc3)N2C23CC4CC(CC(C4)C2)C3)cc1 (stereo not given)	> 100 µM (inactive)	33.3 µM (inactive)	25.5 µM (inactive)	> 100 µM (inactive)	> 100 µM (inactive)	> 100 µM (inactive)	> 100 µM (inactive)	15.5 µM (inactive)	6.46 µM (inactive)	> 100 µM (inactive)	> 100 µM (inactive)	> 100 µM (inactive)	67.9 µM (inactive)	> 100 µM (inactive)	> 100 µM (inactive)	> 100 µM (inactive)	> 100 µM (inactive)	> 100 µM (inactive)	> 100 µM (inactive)	> 100 µM (inactive)
S=C1N=C2C(=N1)n1c3c(c4ccccc41)CCCC23 (stereo not given)	> 100 µM (inactive)	36.6 µM (inactive)	> 100 µM (inactive)	48.3 µM (inactive)	32.4 µM (inactive)	38.6 µM (inactive)	59.2 µM (inactive)	30 µM (inactive)	55.8 µM (inactive)	35 µM (inactive)	32.1 µM (inactive)	14.6 µM (inactive)	72.4 µM (inactive)	49.2 µM (inactive)	49 µM (inactive)	62.4 µM (inactive)	60.5 µM (inactive)	> 100 µM (inactive)	15.5 µM (inactive)	> 100 µM (inactive)
O=C(Cn1c(C(=O)/C=C/c2ccco2)nc2ccccc21)c1ccc(Cl)cc1	25.1 µM (inactive)	–	26.4 µM (inactive)	11.9 µM (inactive)	25.4 µM (inactive)	–	22.8 µM (inactive)	10.1 µM (inactive)	15.5 µM (inactive)	23.8 µM (inactive)	–	13.8 µM (inactive)	3.03 µM (inactive)	14.9 µM (inactive)	9.71 µM (inactive)	11.8 µM (inactive)	23.2 µM (inactive)	29 µM (inactive)	14.3 µM (inactive)	36.1 µM (inactive)
O=C1C2=C(C(=O)c3c(O)ccc(O)c31)[C@@H](O)[C@@H](O)[C@@H](O)C2	1.52 µM (inactive)	2.94 µM (inactive)	1.34 µM (inactive)	1.96 µM (inactive)	0.681 µM (active)	7.24 µM (inactive)	3.52 µM (inactive)	1.02 µM (active)	0.635 µM (active)	4.82 µM (inactive)	2.31 µM (inactive)	2 µM (inactive)	> 100 µM (inactive)	4.46 µM (inactive)	2.78 µM (inactive)	2.66 µM (inactive)	4.66 µM (inactive)	3.43 µM (inactive)	2.02 µM (inactive)	2.72 µM (inactive)
CCCCc1ccc(Nc2nc(Cl)c3c(ncn3COCCOC(C)=O)n2)cc1	20.4 µM (inactive)	20.4 µM (inactive)	18.6 µM (inactive)	18.7 µM (inactive)	23.1 µM (inactive)	14.4 µM (inactive)	16.6 µM (inactive)	29 µM (inactive)	21.6 µM (inactive)	22.9 µM (inactive)	18.3 µM (inactive)	17.5 µM (inactive)	20.7 µM (inactive)	18 µM (inactive)	19.2 µM (inactive)	23.5 µM (inactive)	18.7 µM (inactive)	2.2 µM (inactive)	20.1 µM (inactive)	16.6 µM (inactive)
CCC(C)C(NC(=O)C1CCCN1)C(=O)NC(C(=O)NCC(=O)NC(CC(N)=O)C(=O)NC(CC(C)C)C(=O)NC(CC(C)C)C(=O)NC(CCCCN)C(N)=O)C(C)C (stereo not given) (H-PIVGNLLK-NH2; configuration not given here)	> 75 µM (inactive)	> 75 µM (inactive)	> 75 µM (inactive)	> 75 µM (inactive)	> 75 µM (inactive)	> 75 µM (inactive)	> 75 µM (inactive)	> 75 µM (inactive)	23 µM (inactive)	> 75 µM (inactive)	> 75 µM (inactive)	> 75 µM (inactive)	> 75 µM (inactive)	> 75 µM (inactive)	> 75 µM (inactive)	> 75 µM (inactive)	> 75 µM (inactive)	–	> 75 µM (inactive)	> 75 µM (inactive)
COc1ccc(/C=C2\N=C3NC(=O)C(N4CCCCC4)=C(N)N3C2=O)cc1	47 µM (inactive)	> 100 µM (inactive)	> 100 µM (inactive)	> 100 µM (inactive)	> 100 µM (inactive)	73.6 µM (inactive)	–	> 100 µM (inactive)	25.9 µM (inactive)	52.8 µM (inactive)	> 100 µM (inactive)	> 100 µM (inactive)	> 100 µM (inactive)	> 100 µM (inactive)	> 100 µM (inactive)	> 100 µM (inactive)	> 100 µM (inactive)	24.8 µM (inactive)	> 100 µM (inactive)	> 100 µM (inactive)
CC(CC(C)[C@H]1CCC2[C@H]3C(CC(=O)[C@@]21C)[C@@]1(C)CCC(O)C[C@H]1C[C@@H]3O)C(=O)O (stereo not given in full)	> 100 µM (inactive)	46.2 µM (inactive)	> 100 µM (inactive)	> 100 µM (inactive)	87.1 µM (inactive)	–	> 100 µM (inactive)	41.3 µM (inactive)	46.8 µM (inactive)	> 100 µM (inactive)	> 100 µM (inactive)	> 100 µM (inactive)	18.3 µM (inactive)	> 100 µM (inactive)	> 100 µM (inactive)	> 100 µM (inactive)	58.9 µM (inactive)	> 100 µM (inactive)	> 100 µM (inactive)	> 100 µM (inactive)
COc1cc(C=O)cc(/C=N/N=C/c2ccccc2O)c1O	82.6 µM (inactive)	0.0182 µM (active)	3.22 µM (inactive)	23.6 µM (inactive)	62.2 µM (inactive)	2.7 µM (inactive)	28.4 µM (inactive)	16.4 µM (inactive)	< 0.01 µM (active)	29.8 µM (inactive)	–	21.7 µM (inactive)	19.8 µM (inactive)	76.9 µM (inactive)	36.6 µM (inactive)	36 µM (inactive)	24.6 µM (inactive)	–	19.2 µM (inactive)	66.4 µM (inactive)
